# Patent US20250195502A1, “APPLICATION OF TETRACYCLIC COMPOUND IN TREATMENT OF TUMORS” (SHANGHAI SHIJIANG BIOTECHNOLOGY CO., LTD, priority 2022, published 2025)
# Test system: SF126 (human glioblastoma multiforme cell)
# Assay: Cell viability assay (Promega CellTiter-Glo), inhibitory effect on SF126
# Type: cell-based
# Conditions: 72 h, SF-126, 3 days of culture, Table 3, read-out: inhibitory effect on SF-126 (IC50)
# Experimental: (§1) The inhibitory effect of the compounds prepared in the Examples of the present invention on various tumor cell lines was detected using cell viability assay reagent.
# (§2) Cell viability was detected using the Promega CellTiter-Glo kit, cell viability was determined by directly measuring intracellular ATP content. In the experiment, the ICso value of the compounds prepared in the Examples of the present invention on various tumor cell lines was detected.
# (§3) Each tumor cell was cultured in relevant medium. After cell passage, the gradient diluted compounds prepared in the Examples of the present invention was added. After 3 days of culture, the relevant IC50 (50% inhibiting concentration) was measured. The name, source and culture conditions of each tumor cell line were as follows:
# Cell line SF126 (JCRB, No. IFO50286) was cultured in 10% fetal bovine serum-containing EMEM medium (+P/S).
# (§4) The inhibitory effect of the compounds prepared in the Examples of the present invention on various brain tumor cell lines was detected using cell viability assay reagent.
# (§5) Cell viability was detected using the Promega CellTiter-Glo kit, cell viability was determined by directly measuring intracellular ATP content. In the experiment, the IC50 value of the compounds prepared in the Examples of the present invention on various brain tumor cell lines was detected.
row,Structure (SMILES),IC50 [µM]
1,CCc1c2c(OC)c(OC)ccc2cc2[n+]1CCc1cc3c(cc1-2)OCO3 [compound AB31706],6.49
2,CCCCC(=O)Oc1c(OC)ccc2cc3[n+](cc12)CCc1cc2c(cc1-3)OCO2 [compound AB31723],19.3
3,CCCCCCCCCCCC(=O)Oc1c(OC)ccc2cc3[n+](cc12)CCc1cc2c(cc1-3)OCO2 [compound AB31766],12.9

# Same assay, conditions: SF-126, 72 h, SF126, 3 days of culture, Table 4, read-out: inhibitory effect on brain cell line SF126 (IC50)
row,Structure (SMILES),IC50 [µM]
1,CCc1c2c(OC)c(OC)ccc2cc2[n+]1CCc1cc3c(cc1-2)OCO3 [compound AB31706],6.49

# Test system: 786-O (clear cell renal cell adenocarcinoma cell)
# Assay: Cell viability assay (Promega CellTiter-Glo), inhibitory effect on 786-O
# Type: cell-based
# Conditions: Homo sapiens, 786-0, 72 h, 3 days of culture
# Experimental: as §1, §2, §3
# Cell line 786-0 (ATCC, No. CRL-1932) was cultured in 10% fetal bovine serum-containing RPMI1640 medium (+P/S).
row,Structure (SMILES),IC50 [µM]
1,CCc1c2c(OC)c(OC)ccc2cc2[n+]1CCc1cc3c(cc1-2)OCO3 [compound AB31706],16.6
2,CCCCC(=O)Oc1c(OC)ccc2cc3[n+](cc12)CCc1cc2c(cc1-3)OCO2 [compound AB31723],21.5
3,CCCCCCCCCCCC(=O)Oc1c(OC)ccc2cc3[n+](cc12)CCc1cc2c(cc1-3)OCO2 [compound AB31766],13

# Test system: NCI-H82 (human small cell lung cancer cell)
# Assay: Cell viability assay (Promega CellTiter-Glo), inhibitory effect on NCI-H82
# Type: cell-based
# Conditions: 72 h, 3 days of culture
# Experimental: as §1, §2, §3
# Cell line NCI-H82 (ATCC, No. HTB-175) was cultured in 10% fetal bovine serum-containing RPMI1640 medium (+P/S).
row,Structure (SMILES),IC50 [µM]
1,CCc1c2c(OC)c(OC)ccc2cc2[n+]1CCc1cc3c(cc1-2)OCO3 [compound AB31706],1.48
2,CCCCC(=O)Oc1c(OC)ccc2cc3[n+](cc12)CCc1cc2c(cc1-3)OCO2 [compound AB31723],3.94
3,CCCCCCCCCCCC(=O)Oc1c(OC)ccc2cc3[n+](cc12)CCc1cc2c(cc1-3)OCO2 [compound AB31766],2.47

# Test system: G-401 (human renal carcinoma Wilms cell)
# Assay: Cell viability assay (Promega CellTiter-Glo), inhibitory effect on G-401
# Type: cell-based
# Conditions: 72 h, 3 days of culture
# Experimental: as §1, §2, §3
# Cell line G-401 (ATCC, No. CRL-1441) was cultured in 10% fetal bovine serum-containing McCoy's 5a medium (+P/S).
row,Structure (SMILES),IC50 [µM]
1,CCc1c2c(OC)c(OC)ccc2cc2[n+]1CCc1cc3c(cc1-2)OCO3 [compound AB31706],1.12
2,CCCCC(=O)Oc1c(OC)ccc2cc3[n+](cc12)CCc1cc2c(cc1-3)OCO2 [compound AB31723],5.31
3,CCCCCCCCCCCC(=O)Oc1c(OC)ccc2cc3[n+](cc12)CCc1cc2c(cc1-3)OCO2 [compound AB31766],2.89

# Test system: SW48 (human colon adenocarcinoma cell)
# Assay: Cell viability assay (Promega CellTiter-Glo), inhibitory effect on SW48
# Type: cell-based
# Conditions: 72 h, 3 days of culture
# Experimental: as §1, §2, §3
# Cell line SW48 (ATCC, No. CCL-231) was cultured in 10% fetal bovine serum-containing Leibovitz's L-15 medium (+P/S).
row,Structure (SMILES),IC50 [µM]
1,CCc1c2c(OC)c(OC)ccc2cc2[n+]1CCc1cc3c(cc1-2)OCO3 [compound AB31706],1.24
2,CCCCC(=O)Oc1c(OC)ccc2cc3[n+](cc12)CCc1cc2c(cc1-3)OCO2 [compound AB31723],2.56
3,CCCCCCCCCCCC(=O)Oc1c(OC)ccc2cc3[n+](cc12)CCc1cc2c(cc1-3)OCO2 [compound AB31766],1.21

# Test system: CFPAC-1 (human pancreatic cancer cell)
# Assay: Cell viability assay (Promega CellTiter-Glo), inhibitory effect on CFPAC-1
# Type: cell-based
# Conditions: 72 h, 3 days of culture
# Experimental: as §1, §2, §3
# Cell line CFPAC-1 (ATCC, No. CRL-1918) was cultured in 10% fetal bovine serum-containing IMDM medium (+P/S).
row,Structure (SMILES),IC50 [µM]
1,CCc1c2c(OC)c(OC)ccc2cc2[n+]1CCc1cc3c(cc1-2)OCO3 [compound AB31706],21.9
2,CCCCC(=O)Oc1c(OC)ccc2cc3[n+](cc12)CCc1cc2c(cc1-3)OCO2 [compound AB31723],22.6
3,CCCCCCCCCCCC(=O)Oc1c(OC)ccc2cc3[n+](cc12)CCc1cc2c(cc1-3)OCO2 [compound AB31766],15.2

# Test system: GB-1 (human brain glioblastoma cell)
# Assay: Cell viability assay (Promega CellTiter-Glo), inhibitory effect on GB-1
# Type: cell-based
# Conditions: 72 h, 3 days of culture, Table 3, read-out: inhibitory effect on GB-1 (IC50)
# Experimental: as §1, §2, §3
# Cell line GB-1 (JCRB, No. IFO50489) was cultured in 10% fetal bovine serum-containing DMEM medium (+P/S).
# as §4, §5
row,Structure (SMILES),IC50 [µM]
1,CCc1c2c(OC)c(OC)ccc2cc2[n+]1CCc1cc3c(cc1-2)OCO3 [compound AB31706],12.9
2,CCCCC(=O)Oc1c(OC)ccc2cc3[n+](cc12)CCc1cc2c(cc1-3)OCO2 [compound AB31723],> 50
3,CCCCCCCCCCCC(=O)Oc1c(OC)ccc2cc3[n+](cc12)CCc1cc2c(cc1-3)OCO2 [compound AB31766],9.12

# Same assay, conditions: 72 h, 3 days of culture, Table 4, read-out: inhibitory effect on brain cell line GB-1 (IC50)
row,Structure (SMILES),IC50 [µM]
1,CCc1c2c(OC)c(OC)ccc2cc2[n+]1CCc1cc3c(cc1-2)OCO3 [compound AB31706],12.9

# Test system: MDA-MB-453 (breast cancer cell)
# Assay: Cell viability assay (Promega CellTiter-Glo), inhibitory effect on MDA-MB-453
# Type: cell-based
# Conditions: Homo sapiens, 72 h, 3 days of culture
# Experimental: as §1, §2, §3
# Cell line MDA-MB-453 (ATCC, No. HTB-131) was cultured in 10% fetal bovine serum-containing Leibovitz's L-15 medium (+P/S).
row,Structure (SMILES),IC50 [µM]
1,CCc1c2c(OC)c(OC)ccc2cc2[n+]1CCc1cc3c(cc1-2)OCO3 [compound AB31706],0.62
2,CCCCC(=O)Oc1c(OC)ccc2cc3[n+](cc12)CCc1cc2c(cc1-3)OCO2 [compound AB31723],3.45
3,CCCCCCCCCCCC(=O)Oc1c(OC)ccc2cc3[n+](cc12)CCc1cc2c(cc1-3)OCO2 [compound AB31766],1.25

# Test system: Kelly (brain neuroblastoma cell)
# Assay: Cell viability assay (Promega CellTiter-Glo), inhibitory effect on Kelly
# Type: cell-based
# Conditions: Homo sapiens, 72 h, 3 days of culture, read-out: inhibitory effect on brain cell line Kelly (IC50)
# Experimental: as §4, §5, §3
# Cell line Kelly (ECACC, No. 92110411) was cultured in 10% fetal bovine serum and 2 mM glutamine-containing RPMI1640 medium.
row,Structure (SMILES),IC50 [µM]
1,CCc1c2c(OC)c(OC)ccc2cc2[n+]1CCc1cc3c(cc1-2)OCO3 [compound AB31706],1.51

# Test system: Con-NCI-H82 cell (NCI-H82 transfected with empty virus vector)
# Assay: Cell viability assay (Promega CellTiter-Glo), inhibitory effect on Con-NCI-H82 cell
# Type: cell-based
# Conditions: Homo sapiens; NCI-H82 transfected with empty virus vector (control); CellTiter-Glo; read-out: inhibitory effect on Con-NCI-H82 (IC50)
# Experimental: (§6) The role of expression level of NNMT gene and DNMT1 in the sensitivity of NCI-H82 cell to the compounds prepared in the Examples of the present invention was determined
# (§7) The expression of NNMT protein in NCI-H82 cell was overexpressed by inserting the NNMT gene into NCI-H82 cell using a viral vector, and the NNMT protein-overexpressing NCI-H82 cell (ov-NNMT NCI-H82 cell) was obtained. The expression of DNMT1 in NCI-H82 cell was knocked down transfecting (the by shRNA nucleotide sequence of shRNA was […] TTTTTG (SEQ ID No: 2)) using a viral vector, and the NCI-H82 cell with low expression of DNMT1 protein (sh-DNMT1 NCI-H82 cell) was obtained. The control NCI-H82 cell (Con-NCI-H82 cell) was obtained by transfecting NCI-H82 cell with empty virus vector without carrying NNMT gene and shRNA. The expressing content of NNMT protein and DNMT1 protein in the Con-NCI-H82 cell, the expressing content of NNMT protein in the ov-NNMT NCI-H82 cell, and the expressing content of DNMT1 protein in the sh-DNMT1 NCI-H82 cell were detected using Western Blot assay (as shown in FIG. 15 and FIG. 16), it could be seen from FIG. 15 and FIG. 16 that the NNMT protein was overexpressed in the ov-NNMT NCI-H82 cell and the expression of DNMT1 protein was knocked down (i.e, low expression) in the sh-DNMT1 NCI-H82 cell compared with the expression level of NNMT protein and DNMT protein in the Con-NCI-H82 cell.
row,Structure (SMILES),IC50 [µM]
1,CCc1c2c(OC)c(OC)ccc2cc2[n+]1CCc1cc3c(cc1-2)OCO3 [compound AB31706],1.48
2,CCCCC(=O)Oc1c(OC)ccc2cc3[n+](cc12)CCc1cc2c(cc1-3)OCO2 [compound AB31723],3.94
3,CCCCCCCCCCCC(=O)Oc1c(OC)ccc2cc3[n+](cc12)CCc1cc2c(cc1-3)OCO2 [compound AB31766],2.47

# Test system: sh-DNMT1 NCI-H82 cell (DNMT1 knocked down NCI-H82)
# Assay: Cell viability assay (Promega CellTiter-Glo), inhibitory effect on sh-DNMT1 NCI-H82 cell
# Type: cell-based
# Conditions: Homo sapiens, NCI-H82 with DNMT1 knocked down by shRNA
# Experimental: as §6, §7
row,Structure (SMILES),IC50 [µM]
1,CCc1c2c(OC)c(OC)ccc2cc2[n+]1CCc1cc3c(cc1-2)OCO3 [compound AB31706],4.64
2,CCCCC(=O)Oc1c(OC)ccc2cc3[n+](cc12)CCc1cc2c(cc1-3)OCO2 [compound AB31723],8.08
3,CCCCCCCCCCCC(=O)Oc1c(OC)ccc2cc3[n+](cc12)CCc1cc2c(cc1-3)OCO2 [compound AB31766],4.84

# Test system: D341 Med (cerebellar medulloblastoma cell)
# Assay: Cell viability assay (Promega CellTiter-Glo), inhibitory effect on D341 Med
# Type: cell-based
# Conditions: Homo sapiens, 72 h, 3 days of culture, read-out: inhibitory effect on brain cell line D341 Med (IC50)
# Experimental: as §4, §5, §3
# Cell line D341 Med (ATCC, No. HTB-187) was cultured in 20% fetal bovine serum-containing EMEM medium (+P/S).
row,Structure (SMILES),IC50 [µM]
1,CCc1c2c(OC)c(OC)ccc2cc2[n+]1CCc1cc3c(cc1-2)OCO3 [compound AB31706],1.18

# Test system: ov-NNMT NCI-H82 cell (NNMT protein-overexpressing NCI-H82)
# Assay: Cell viability assay (Promega CellTiter-Glo), inhibitory effect on ov-NNMT NCI-H82 cell
# Type: cell-based
# Conditions: Homo sapiens
# Experimental: as §6, §7
row,Structure (SMILES),IC50 [µM]
1,CCc1c2c(OC)c(OC)ccc2cc2[n+]1CCc1cc3c(cc1-2)OCO3 [compound AB31706],3.15
2,CCCCC(=O)Oc1c(OC)ccc2cc3[n+](cc12)CCc1cc2c(cc1-3)OCO2 [compound AB31723],8.28
3,CCCCCCCCCCCC(=O)Oc1c(OC)ccc2cc3[n+](cc12)CCc1cc2c(cc1-3)OCO2 [compound AB31766],4.95

# Test system: NB-1 (brain neuroblastoma cell)
# Assay: Cell viability assay (Promega CellTiter-Glo), inhibitory effect on NB-1
# Type: cell-based
# Conditions: Homo sapiens, 72 h, 3 days of culture, read-out: inhibitory effect on brain cell line NB-1 (IC50)
# Experimental: as §4, §5, §3
# Cell line NB-1 (ATCC, No. HTB-131) was cultured in 10% fetal bovine serum-containing Leibovitz's L-15 medium (+P/S).
row,Structure (SMILES),IC50 [µM]
1,CCc1c2c(OC)c(OC)ccc2cc2[n+]1CCc1cc3c(cc1-2)OCO3 [compound AB31706],0.3
